Series [1] concerns Lemna minor. Briefly: Lemna minor bioassay (dose-response, 7-day growth). In kind it is in vivo. The settings on record: for EC50: 168 h, read-out: EC50 dose from dose-response analysis of Lemna minor growth. The text has this:
A sterile culture of Lemna minor was obtained from the laboratory of Dr. Ryan Prosser (University of Guelph, School of Environmental Science). The culture was transferred to a 1 L Erlenmeyer flask containing a ½ strength Hoagland solution. The cultures were transferred to a growth chamber and were left for a growing period of 7 days. After the growth period, the Erlenmeyer flasks were brought to the lab to use the healthy plants for bioassay and water treatment experiments.
The temperature and humidity sensors were built in house by the Controlled Environment Systems Research Facility (CESRF) at the University of Guelph. The growth chamber conditions for humidity and temperature were recorded using an Acer Aspire 7750 laptop (P7YEO, Acer, Taiwan) and using the Termite software for data logging (version 3.4). The temperature was maintained at 25.68±0.02° C. and the relative humidity was 38.34±0.05%. Lumigrow pro 325 LED lights (LU60001, Lumigrow, USA) were used at a 80:10:10 ratio of Red:Blue:White as overhead lighting for plants (FIGS. 38A & 38B). Furthermore, a grid system inside the growth chamber with 36 grid boxes were used to place Erlenmeyer flasks in a completely randomized design (FIG. 38C). Each ‘grid’ was measured for photosynthetically active radiation (PAR) using a modular spectrometer (USB2000+, Ocean Optics Inc., USA). This allowed to account for random differences attributed to light intensity within the growth chamber. A heat map is generated with this information and in the middle of the ‘grid box’ there was a maximum intensity of […] (FIG. 39).
The analysis of dose-response curves for affecting the growth of Lemna minor was determined using the ‘drc’ package (v. 3.0-1, Christian Ritz, 2016) in the statistical program RStudio (v. 1.0.153, RStudio Inc., USA). The program was used to determine the EC 50 for each measured parameter for plant health and reproduction of the number of plants, number of fronds, and the dry weights of plants contained in each flask.
All solutions were treated with the four different water treatment methods and 75 mL of effluent solution was collected and added in 250 mL Erlenmeyer flasks. Negative control samples only contained 75 mL of deionized water, while all other treatments (positive control, Ozone, AOP, DSA, and BDD) contained 75 mL of the treated and non-treated solution. In a separate 3-litre beaker, a full-strength Hoagland solution was prepared and mixed with a magnetic stirrer (220T, Fisher Scientific, Canada). For each of the Erlenmeyer flasks containing the treated solutions, 75 mL of the Hoagland solution was added into each flask. […] Lemna minor that were previously cultured and acclimated to the ‘Grid box’ were then added to each flask. Two Lemna minor plants with three fronds each were added to flasks for the experiment. All 5 treatments contained 3 Erlenmeyer flasks giving a total of […] and the experiment was performed in triplicate. All of the flasks were placed at random inside the growth chamber within each grid and recorded their location. The pH and electrical conductivity of the solutions were also measured after the 7-day growth period.
Significant differences were only observed at the concentration of 15 mg/L of glyphosate for the final number of fronds and the dry weight of plants (FIGS. 41A & 41B). […] Noticeable differences such as the number of plants, lighter colour of fronds, and spindly roots can be visualized in comparison with the control (FIG. 42A) to the presence of 15 mg/L of glyphosate (FIG. 42B).

A short description of series [2]: Electrochemical treatment of chemical standards in batch cell (DSA or BDD anodes). On the set-up: reduction of compound in solution: concentration or dose not given beside the values. In kind it is physicochemical. The following applies: for NPOC decrease / TN decrease: 2.27 mA/cm^2, up to 6-minute contact time, batch cell, 20 mg/L chloride. The method, then: Initial water treatment was performed by treating the solution by batch cell using the DSA and BDD anodes, as well as stainless steel (SS) cathodes. The experiment used a 2 L beaker and filled the beaker with 1.8 L of deionized water and dissolved the chemical standards glyphosate (45521, Sigma-Aldrich, USA) or paclobutrazol (46046, Sigma-Aldrich, USA) for separate treatments. The solution was constantly mixed using a magnetic stirrer (220T, Fisher Scientific, Canada) and bar during treatment with chemical standards. Samples containing glyphosate and paclobutrazol standards were submitted to the Agriculture and Food Laboratory (University of Guelph) to quantify samples using LC-MS/MS. The mean quantifiable limit for the analytical method was 8 μg/L for glyphosate, AMPA, and paclobutrazol. The non-purgeable organic carbon (NPOC) and total nitrogen (TN) of the solution were determined using a Shimadzu TOC-Vpn & TNM-1 analyzer. A calibration curve (R^2=0.99) was produced before performing the sample analysis using TOC and TN standards.
The degradation of both glyphosate (8.5 mg/L) and paclobutrazol (12 mg/L) was conducted with the use of electrochemical systems for a direct comparison on their efficacies in a batch cell configuration. […] The NPOC and TN had larger decreases between the 3 and 6-minute contact time with the DSA electrodes for glyphosate, while the changes were more subtle using BDD electrodes.

Series [3] deals with Lemna minor. Briefly: Water treatment of commercial pesticide solutions in the EFC followed by Lemna minor growth test. In kind it is in vivo.
Where [4] appears, read: BDD electrodes, 2.27 mA/cm^2, 6-minute contact time, LC-MS/MS.
[5] abbreviates: DSA electrodes, 2.27 mA/cm^2, 6-minute contact time, LC-MS/MS.

Converted amounts (≈) assume the structure as drawn. “And” between values parts separate entries of the source, which are not always exact repeats. Equal values may be shown once. “Also recorded” adds a separate entry of the source. Read-outs that look alike come from different tables or passages of the source. Where only a bound is given, the exact number is not on record here.

For orientation: EC50 means the concentration at which the effect is half-maximal. Turning to `CC(C)(C)[C@@H](O)[C@@H](Cc1ccc(Cl)cc1)n1cncn1` (racemic) [paclobutrazol], the EC50 in series [1] (Lemna minor, 7 days in growth chamber, glyphosate as Glyfos, paclobutrazol as Bonzi, drc package) was found to be 0.01 µg/mL (≈ 0.034 µM). Further, in series [1] (Lemna minor, in vivo, 7 days), the LOEC levels is 0.01 mg/L and the “concentration with significant differences for all measured parameters in the health of Lemna minor” value was 50 ng/mL. For the same compound, in series [1] (in vivo), the “effect on plant physiological and reproductive health parameters vs control” value was “Significant decreases were observed for all tested concentrations”. Further, the “reduction of compound in solution” value in series [2] (setting [4]) was 80.94% and 81%. In addition, in series [2] (BDD electrodes), the NPOC decrease was 18.41% and 18%; the TN decrease was 22.58% and 23%. Further, the “reduction of compound in solution” value in series [2] (setting [5]) is 28.29% and 28%. Further, in series [2] (DSA electrodes), the NPOC decrease entry was “unaffected; also recorded: no significant effect”; the TN decrease is 7.12% and 7%. In addition, the “concentration remaining after treatment, inferred from plant growth parameters” value in series [3] (Bonzi, 3 mg/L paclobutrazol, BDD electrodes, recirculated 3 passes, 18 minutes total contact) is recorded as “lower than 0.05 mg/L”.
Take `NCP(=O)(O)O` [AMPA, aminomethylphosphonic acid]: the “increase of AMPA in glyphosate solution” value in series [2] (BDD electrodes, 2.27 mA/cm^2, 0 to 6-minute contact time) came to 0.10 mg/L. Besides, the “AMPA concentration after treatment of glyphosate solution” value in series [2] (BDD electrodes, 2.27 mA/cm^2, 6 minutes, increased from 0.009) amounted to 0.11 mg/L.
On to `O=C(O)CNCP(=O)(O)O` [glyphosate, N-(phosphonomethyl)glycine], for which the “concentration with significant differences in final number of fronds and dry weight of plants” value in series [1] (Glyfos, 7 days growth) was determined as 15000 ng/mL. The EC50 in series [1] (Lemna minor) was approximately 9 µg/mL (≈ 53.2 µM). The “reduction of compound in solution” value in series [2] (setting [4]) is 72.47% and 72%. Moreover, the NPOC decrease is 19.73% in series [2] (BDD electrodes); 20% in series [2] (BDD electrodes, listed as Glyphosate); 16.18% and 16% in series [2] (DSA electrodes). Also, the TN decrease was 32.61% and 32% in series [2] (BDD electrodes); 85.97% and 86% in series [2] (DSA electrodes). The “level remaining in solution after treatment (below detection limit)” value in series [2] (setting [5]) was less than 8 ng/mL. For the same compound, in series [3] (Roundup, 7 mg/L glyphosate, DSA electrodes, 2.27 mA/cm^2, 1-minute contact time), the “concentration remaining after treatment, inferred from plant growth” value is reported as “lower than 2.5 mg/L”.

These data come from patent publication US12325646B2, “Fertigation water treatment” (UNIVERSITY OF GUELPH, priority 2019, dated 2025).
